According to US20240408169A1 (priority 2023, published 2024):
Where two headings read alike, the source gives them in different places. *1 amine or outer side, *2 acyl side, *3 side chain or, on linkers, in order; H or OH if unused. Where a SMILES comes first, the peptide text is derived from it. Bridges are numbered along the chain shown (N, C = ends). [ ]: non-standard residue; d: D form. The star is where a group is joined. ξ: configuration not given here. X205 = CC(C)C(=O)N1[C@@H]2COC[C@H]1C=C(c1ccc(F)cc1C[C@@H](C(=O)[*:2])N(C)[*:1])C2; X169 = CN([C@@H](Cc1cc(Cl)ccc1-c1ccc(-c2cnn3c2COCC3)cc1)C(=O)[*:2])[*:1]; X160 = CC(=O)N1CC=C(c2ccc(Cl)cc2C[C@@H](C(=O)[*:2])N(C)[*:1])C(C)(C)C1; NMeAla(5-Cl-2-cPrO-3-pyridyl) = CN[C@@H](Cc1cc(Cl)cnc1OC1CC1)C(=O)O; X140 = CN([C@@H](Cc1cc(Cl)ccc1-c1ccc(Oc2cccnc2)cc1)C(=O)[*:2])[*:1]; NMe3Pal(2-OiBu,5-Cl) = CN[C@@H](Cc1cc(Cl)cnc1OCC(C)C)C(=O)O; NMehhhLys(Me) = CN([C@@H](CCCCCCCN(C)[*:3])C(=O)[*:2])[*:1]; NMe3Pal(2-OiPr,5-Cl) = CN[C@@H](Cc1cc(Cl)cnc1OC(C)C)C(=O)O; X211 = Cc1ncc(-c2ccc(Cl)cc2C[C@@H](C(=O)[*:2])N(C)[*:1])s1; X22 = CN([C@@H](Cc1cc(Cl)ccc1-c1cnn(C)c1)C(=O)[*:2])[*:1]; X194 = CN([C@@H](Cc1cc(Cl)ccc1-c1ccnnc1)C(=O)[*:2])[*:1]; X199 = CN([C@@H](Cc1cc(Cl)ccc1C1=CCOC1)C(=O)[*:2])[*:1]; X204 = CN([C@@H](Cc1cc(F)ccc1-c1ccnnc1)C(=O)[*:2])[*:1]; NMe(hhhLys) = CN([C@@H](CCCCCCCN[*:3])C(=O)[*:2])[*:1]; cBuCO(3,3-F2-1-CF3) = O=C(C1(C(F)(F)F)CC(F)(F)C1)*; NMePhe(2,5-Cl2) = CN[C@@H](Cc1cc(Cl)ccc1Cl)C(=O)O; X25 = CCOc1ncc(Cl)cc1C[C@@H](C(=O)[*:2])N(C)[*:1]; Pro(trans-4-F) = O=C(O)[C@@H]1C[C@@H](F)CN1; Gly(cPr) = N[C@H](C(=O)O)C1CC1; ξGly(cPr) = NC(C(=O)O)C1CC1

Assays:
CyclinB1/CDK1 = molecular target: T1, CyclinB1/CDK1 (Homo sapiens, UniProt P14635); experiment: Fluorescence Polarization (FP) competitive binding assay, Cyclin B1/Cdk1;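 note: fluorescence polarization read after equilibration at room temperature, with IC50 taken from serially diluted dose-response curves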
T1 construct: purchased Eurofins, discovery 14-450

CyclinE1/CDK2 = molecular target: T2, CyclinE1/CDK2 (Homo sapiens, UniProt P24864); experiment: Fluorescence Polarization (FP) competitive binding assay, Cyclin E1/Cdk2;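 note: readings taken after two-hour equilibration at room temperature in HEPES buffer with NaCl, DTT, NP-40 and BSA, IC50 fitted from eight-concentration serial dilution series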
T2 construct: purchased Eurofins, discovery 14-475

WI-38 cells = experiment: MTT proliferation assay, WI-38; assay type: cell-based; settings: 3 days compound exposure, 1:3 serial dilution starting at 10 μM;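 note: Eight- or ten-point dilution series, with exposure length chosen to span about three to four cell doublings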
NCI-H1048 cells = experiment: MTT proliferation assay, NCI-H1048; assay type: cell-based; settings: 5 days compound exposure, 1:3 serial dilution starting at 10 μM;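 note: Dose-response in 96-well plates over 8 or 10 concentration points, with exposure spanning 3-4 cell doublings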
OVCAR3 cells = experiment: MTT proliferation assay, OVCAR3; assay type: cell-based; settings: 5 days compound exposure, 1:3 serial dilution starting at 10 μM;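 note: compound given as an 8- or 10-point series, one day after plating, with exposure covering roughly 3-4 cell doublings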
CyclinA2/CDK2 = molecular target: T3, CyclinA2/CDK2 (Homo sapiens, UniProt P20248); experiment: Fluorescence Polarization (FP) competitive binding assay, Cyclin A2/Cdk2;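 note: plates equilibrated two hours at room temperature before polarization reading, IC50 fitted from eight-concentration compound titration curves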
T3 construct: purchased CRELUX Protein Services

[1] = 10 nM Cyclin B1/Cdk1, 2 nM FAM probe; average of 2-3 independent experiments; read-out: Cyclin B FP IC50
[2] = 10 nM Cyclin E1/Cdk2, 2 nM FAM probe, average of 2-3 independent experiments, read-out: Cyclin E FP IC50
[3] = read-out: Cyclin B FP IC50; 10 nM Cyclin B1/Cdk1, 2 nM FAM probe; average of 2-3 independent experiments
[4] = 8 nM Cyclin A2/Cdk2, 2 nM FAM probe; average of 2-3 independent experiments; read-out: Cyclin A FP IC50

Structure (SMILES)	IC50 (CyclinB1/CDK1; [1]) [nM]	IC50 (CyclinE1/CDK2; [2]) [nM]	GI50 (WI-38 cells) [nM]	GI50 (NCI-H1048 cells) [nM]	GI50 (OVCAR3 cells) [nM]	IC50 (CyclinB1/CDK1; [3]) [nM]	IC50 (CyclinE1/CDK2) [nM]	IC50 (CyclinA2/CDK2; [4]) [nM]	IC50 (CyclinA2/CDK2; read-out: Cyclin A FP IC50; 8 nM Cyclin A2/Cdk2, 2 nM FAM probe; average of 2-3 independent experiments) [nM]
CC(C)C[C@@H]1NC(=O)[C@@H](N(C)C(=O)[C@@H](NC(=O)[C@@H]2C[C@@H](F)CN2C(=O)C2(C(F)(F)F)CC(F)(F)C2)C2CC2)CCCCCCCN(C)C(=O)[C@H](Cc2cc(Cl)cnc2OC(C)C)N(C)C1=O [Example 120] ({cBuCO(3,3-F2-1-CF3)}-[Pro(trans-4-F)][Gly(cPr)][NMehhhLys(Me)]L[NMe3Pal(2-OiPr,5-Cl)]; lactam 3-C)	20	210	9280	100	130				
CCOc1ncc(Cl)cc1C[C@H]1C(=O)N(C)CCCCCCC[C@H](N(C)C(=O)[C@@H](NC(=O)[C@@H]2C[C@@H](F)CN2C(=O)C2(C(F)(F)F)CC(F)(F)C2)C2CC2)C(=O)N[C@@H](CC(C)C)C(=O)N1C [Example 225] ({cBuCO(3,3-F2-1-CF3)}-[Pro(trans-4-F)][Gly(cPr)][NMehhhLys(Me)]L[X25]; lactam 3-C)			8530	20	30	20	190		
CC(C)C[C@@H]1NC(=O)[C@@H](N(C)C(=O)[C@@H](NC(=O)[C@@H]2C[C@@H](F)CN2C(=O)C2(C(F)(F)F)CC(F)(F)C2)C2CC2)CCCCCCCNC(=O)[C@H](Cc2cc(Cl)ccc2-c2cnn(C)c2)N(C)C1=O [Example 66] ({cBuCO(3,3-F2-1-CF3)}-[Pro(trans-4-F)][Gly(cPr)][NMe(hhhLys)]L[X22]; lactam 3-C)			12900	10	10				
CC(C)C[C@@H]1NC(=O)[C@@H](N(C)C(=O)[C@@H](NC(=O)[C@@H]2C[C@@H](F)CN2C(=O)C2(C(F)(F)F)CC(F)(F)C2)C2CC2)CC=CCCCCNC(=O)[C@H](Cc2cc(Cl)ccc2Cl)N(C)C1=O (single isomer, unassigned) [Example 6-P2]	20	240	15600	40	70				
CC(C)C[C@@H]1NC(=O)[C@@H](N(C)C(=O)[C@@H](NC(=O)[C@@H]2C[C@@H](F)CN2C(=O)C2(C(F)(F)F)CC3(CCC3)C2)C2CC2)CC=CCCCCN(C)C(=O)[C@H](Cc2cc(Cl)ccc2Cl)N(C)C1=O [Example 15]	20	1040	7850	180	550				
CC(=O)N1CC=C(c2ccc(Cl)cc2C[C@H]2C(=O)NCCCCCCC[C@H](N(C)C(=O)C(NC(=O)[C@@H]3C[C@@H](F)CN3C(=O)C3(C(F)(F)F)CC(F)(F)C3)C3CC3)C(=O)N[C@@H](CC(C)C)C(=O)N2C)C(C)(C)C1 (stereo partly drawn) [Example 277] ({cBuCO(3,3-F2-1-CF3)}-[Pro(trans-4-F)][ξGly(cPr)][NMe(hhhLys)]L[X160]; lactam 3-C)	20		3820	330	360			600	
CC(C)C[C@@H]1NC(=O)[C@@H](N(C)C(=O)[C@@H](NC(=O)[C@@H]2C[C@@H](F)CN2C(=O)C2(C(F)(F)F)CC(F)(F)C2)C2CC2)CC=CCCCCNC(=O)[C@H](Cc2cc(Cl)ccc2Cl)N(C)C1=O (single isomer, unassigned) [Example 6-P1]	20	500	16400	50	90				
CC(C)C[C@@H]1NC(=O)[C@@H](N(C)C(=O)[C@@H](NC(=O)[C@@H]2C[C@@H](F)CN2C(=O)C2(C(F)(F)F)CC(F)(F)C2)C2CC2)CCCCCCCN(C)C(=O)[C@H](Cc2cc(Cl)ccc2Cl)N(C)C1=O [Example 25] ({cBuCO(3,3-F2-1-CF3)}-[Pro(trans-4-F)][Gly(cPr)][NMehhhLys(Me)]L[NMePhe(2,5-Cl2)]; lactam 3-C)	20	230	8070	30	40				
Cc1ncc(-c2ccc(Cl)cc2C[C@H]2C(=O)N(C)CCCCCCC[C@H](N(C)C(=O)[C@@H](NC(=O)[C@@H]3C[C@@H](F)CN3C(=O)C3(C(F)(F)F)CC(F)(F)C3)C3CC3)C(=O)N[C@@H](CC(C)C)C(=O)N2C)s1 [Example 75] ({cBuCO(3,3-F2-1-CF3)}-[Pro(trans-4-F)][Gly(cPr)][NMehhhLys(Me)]L[X211]; lactam 3-C)	20	440	5890	10	20				
CC(C)COc1ncc(Cl)cc1C[C@H]1C(=O)N(C)CCCCCCC[C@H](N(C)C(=O)[C@@H](NC(=O)[C@@H]2C[C@@H](F)CN2C(=O)C2(C(F)(F)F)CC(F)(F)C2)C2CC2)C(=O)N[C@@H](CC(C)C)C(=O)N1C [Example 228] ({cBuCO(3,3-F2-1-CF3)}-[Pro(trans-4-F)][Gly(cPr)][NMehhhLys(Me)]L[NMe3Pal(2-OiBu,5-Cl)]; lactam 3-C)			9540	60	80	20	250		
CC(C)C[C@@H]1NC(=O)[C@@H](N(C)C(=O)[C@@H](NC(=O)[C@@H]2C[C@@H](F)CN2C(=O)C2(C(F)(F)F)CC(F)(F)C2)C2CC2)CCCCCCCN(C)C(=O)[C@H](Cc2cc(Cl)cnc2OC2CC2)N(C)C1=O [Example 105] ({cBuCO(3,3-F2-1-CF3)}-[Pro(trans-4-F)][Gly(cPr)][NMehhhLys(Me)]L[NMeAla(5-Cl-2-cPrO-3-pyridyl)]; lactam 3-C)			18800	20	30				
CC(C)C[C@@H]1NC(=O)[C@@H](N(C)C(=O)[C@@H](NC(=O)[C@@H]2C[C@@H](F)CN2C(=O)C2(C(F)(F)F)CC(F)(F)C2)C2CC2)CCCCCCCN(C)C(=O)[C@H](Cc2cc(Cl)ccc2-c2ccc(Oc3cccnc3)cc2)N(C)C1=O [Example 385] ({cBuCO(3,3-F2-1-CF3)}-[Pro(trans-4-F)][Gly(cPr)][NMehhhLys(Me)]L[X140]; lactam 3-C)	20	1630		30	20			20	
CC(C)C[C@@H]1NC(=O)[C@@H](N(C)C(=O)[C@@H](NC(=O)[C@@H]2C[C@@H](F)CN2C(=O)C2(C(F)(F)F)CC(F)(F)C2)C2CC2)CCCCCCCN(C)C(=O)[C@H](Cc2cc(Cl)ccc2C2=CCOC2)N(C)C1=O [Example 209] ({cBuCO(3,3-F2-1-CF3)}-[Pro(trans-4-F)][Gly(cPr)][NMehhhLys(Me)]L[X199]; lactam 3-C)				10	20	20	540		20
CC(C)C[C@@H]1NC(=O)[C@@H](N(C)C(=O)[C@@H](NC(=O)[C@@H]2C[C@@H](F)CN2C(=O)C2(C(F)(F)F)CC(F)(F)C2)C2CC2)CCCCCCCNC(=O)[C@H](Cc2cc(F)ccc2C2=C[C@@H]3COC[C@H](C2)N3C(=O)C(C)C)N(C)C1=O [Example 325] ({cBuCO(3,3-F2-1-CF3)}-[Pro(trans-4-F)][Gly(cPr)][NMe(hhhLys)]L[X205]; lactam 3-C)	20	300		10	10			20	
CC(C)C[C@@H]1NC(=O)[C@@H](N(C)C(=O)[C@@H](NC(=O)[C@@H]2C[C@@H](F)CN2C(=O)C2(C(F)(F)F)CCC2)C2CC2)CC=CCCCCN(C)C(=O)[C@H](Cc2cc(Cl)ccc2Oc2ncccn2)N(C)C1=O [Example 157]	20	410		80	140			360	
CC(C)C[C@@H]1NC(=O)[C@@H](N(C)C(=O)[C@@H](NC(=O)[C@@H]2C[C@@H](F)CN2C(=O)C2(C(F)(F)F)CC(F)(F)C2)C2CC2)CCCCCCCNC(=O)[C@H](Cc2cc(Cl)ccc2-c2ccnnc2)N(C)C1=O [Example 291] ({cBuCO(3,3-F2-1-CF3)}-[Pro(trans-4-F)][Gly(cPr)][NMe(hhhLys)]L[X194]; lactam 3-C)	20	5160		120	150			70	
CC(C)C[C@@H]1NC(=O)[C@@H](N(C)C(=O)[C@@H](NC(=O)[C@@H]2C[C@@H](F)CN2C(=O)C2(C(F)(F)F)CC(F)(F)C2)C2CC2)CCCCCCCN(C)C(=O)[C@H](Cc2cc(F)ccc2-c2ccnnc2)N(C)C1=O [Example 279] ({cBuCO(3,3-F2-1-CF3)}-[Pro(trans-4-F)][Gly(cPr)][NMehhhLys(Me)]L[X204]; lactam 3-C)	20	1920		80	90			100	
CC(C)C[C@@H]1NC(=O)[C@@H](N(C)C(=O)[C@@H](NC(=O)[C@@H]2C[C@@H](F)CN2C(=O)C2(C(F)(F)F)CC(F)(F)C2)C2CC2)CCCC=CCCNC(=O)[C@H](Cc2cc(Cl)ccc2-c2cnn(C3CC3)c2)N(C)C1=O [Example 287]	20	1940		40	40			60	
CC(C)C[C@@H]1NC(=O)[C@@H](N(C)C(=O)[C@@H](NC(=O)[C@@H]2C[C@@H](F)CN2C(=O)C2(C(F)(F)F)CC(F)(F)C2)C2CC2)CCCCCCCN(C)C(=O)[C@H](Cc2cc(Cl)ccc2-c2ccc(-c3cnn4c3COCC4)cc2)N(C)C1=O [Example 378] ({cBuCO(3,3-F2-1-CF3)}-[Pro(trans-4-F)][Gly(cPr)][NMehhhLys(Me)]L[X169]; lactam 3-C)	20	1120		10	20			20	
